Results from ChEMBL document CHEMBL4422644, “Synthesis and evaluation of α-aminoacyl amides as antitubercular agents effective on drug resistant tuberculosis” (Eur J Med Chem, 2019).
In brackets after ≈: the same amount, converted by molar mass.

Assays:
Escherichia coli = assay: Antibacterial activity against Escherichia coli ATCC 25922 after 24 hrs; format: functional; details: ATCC 25922, 24 h
[1] = system: Mycobacteroides abscessus; assay: Antibacterial activity against Mycobacterium abscessus after 7 days by alamar blue assay; format: functional; details: 168 h
[2] = system: Mycolicibacterium fortuitum; assay: Antibacterial activity against Mycobacterium fortuitum after 7 days by alamar blue assay; format: functional; details: 168 h
Acinetobacter baumannii = assay: Antibacterial activity against Acinetobacter baumannii ATCC BAA-1605 after 24 hrs; format: functional; details: ATCC BAA-1605, 24 h
Staphylococcus aureus = assay: Antibacterial activity against Staphylococcus aureus ATCC 29213 after 24 hrs; format: functional; details: ATCC 29213, 24 h
[3] = system: Mycobacterium tuberculosis; assay: Antitubercular activity against Mycobacterium tuberculosis H37Rv after 7 days by alamar blue assay; format: functional; details: 168 h
Klebsiella pneumoniae = assay: Antibacterial activity against Klebsiella pneumoniae ATCC BAA-1705 after 24 hrs; format: functional; details: ATCC BAA-1705, 24 h
Mycobacteroides chelonae = assay: Antibacterial activity against Mycobacterium chelonae after 7 days by alamar blue assay; format: functional; details: 168 h
Pseudomonas aeruginosa = assay: Antibacterial activity against Pseudomonas aeruginosa ATCC 27853 after 24 hrs; format: functional; details: ATCC 27853, 24 h
HepG2 = assay: Cytotoxicity against human HepG2 cells after 24 hrs by MTT assay; format: functional, cell-based; details: HepG2, 24 h
MCF7 = assay: Cytotoxicity against human MCF7 cells after 24 hrs by MTT assay; format: functional, cell-based; details: MCF7, 24 h
HeLa = assay: Cytotoxicity against human HeLa cells after 24 hrs by MTT assay; format: functional, cell-based
DU-145 = assay: Cytotoxicity against human DU145 cells after 24 hrs by MTT assay; format: functional, cell-based; details: DU-145, 24 h
CHO-K1 = assay: Cytotoxicity against CHOK1 cells after 24 hrs by MTT assay; format: cell-based; details: Cricetulus griseus, CHO-K1, 24 h
[4] = Selectivity index, ratio of IC50 for CHOK1 cells to MIC for Mycobacterium tuberculosis H37Rv; format: toxicity; details: hamster, read-out: Selectivity Index
A549 = assay: Cytotoxicity against human A549 cells after 24 hrs by MTT assay; format: functional, cell-based; details: A549, 24 h
[5] = Cytotoxicity against HEK cells after 24 hrs by MTT assay; format: cell-based; details: Homo sapiens, HEK293, 24 h
[6] = Cytotoxicity against […] B16 cells after 24 hrs by MTT assay; format: functional, cell-based; details: B16, 24 h

| Structure (SMILES) | MIC (Escherichia coli) | MIC [1] | MIC [2] | MIC (Acinetobacter baumannii) | MIC (Staphylococcus aureus) | MIC [3] | MIC (Klebsiella pneumoniae) | MIC (Mycobacteroides chelonae) | MIC (Pseudomonas aeruginosa) | other results |
| --- | --- | --- | --- | --- | --- | --- | --- | --- | --- | --- |
| Cc1ccc(N(C(=O)c2ccc[nH]2)C(C(=O)NC2CCCCC2)c2ccncc2)cc1 (stereo not given) | > 50 µM | > 50 µM | > 50 µM | > 50 µM | > 50 µM | 25 µM (≈ 10.4 µg/mL) | > 50 µM | > 50 µM | > 50 µM | – |
| Cc1ccc(N(C(=O)c2sc(C)nc2C)C(C(=O)NC2CCCCC2)c2ccc(C(F)(F)F)cc2)cc1 (stereo not given) | – | – | – | – | – | > 100 µM | – | – | – | – |
| Cc1ccc(N(C(=O)c2ccc[nH]2)C(C(=O)NC2CCCCC2)c2ccccc2)c(C)c1 (stereo not given) | > 50 µM | > 50 µM | > 50 µM | > 50 µM | > 50 µM | 6.25 µM (≈ 2.68 µg/mL) | > 50 µM | > 50 µM | > 50 µM | IC50 (HepG2): 13.5 µM; IC50 (MCF7): 15.5 µM; IC50 (HeLa): 10.9 µM; IC50 (DU-145): 9.3 µM; IC50 (CHO-K1): 68.2 µM; selectivity ratio [4]: 10.8; IC50 (A549): 15.5 µM; IC50 [5]: 33.2 µM; IC50 [6]: 32.5 µM |
| Cc1ccc(N(C(=O)c2sc(C)nc2C)C(C(=O)NC2CCCCC2)c2ccc(Cl)cc2)cc1 (stereo not given) | > 50 µM | > 50 µM | > 50 µM | > 50 µM | > 50 µM | 0.78 µM (≈ 0.387 µg/mL) | > 50 µM | > 50 µM | > 50 µM | IC50 (HepG2): 5.33 µM; IC50 (MCF7): 3.19 µM; IC50 (HeLa): 11.9 µM; IC50 (DU-145): 9 µM; IC50 (CHO-K1): 7.37 µM; selectivity ratio [4]: 8.9; IC50 (A549): 10.3 µM; IC50 [5]: 11.8 µM; IC50 [6]: 23 µM |
| Cc1nc(C)c(C(=O)N(c2ccccc2O)C(C(=O)NC2CCCCC2)c2ccccc2)s1 (stereo not given) | > 50 µM | > 50 µM | > 50 µM | > 50 µM | > 50 µM | 25 µM (≈ 11.6 µg/mL) | > 50 µM | > 50 µM | > 50 µM | – |
| Cc1nc(C)c(C(=O)N(c2cnc3ccccc3c2)C(C(=O)NC2CCCCC2)c2ccccc2)s1 (stereo not given) | – | – | – | – | – | > 100 µM | – | – | – | – |
| C[C@H]1COc2c(N3CCN(C)CC3)c(F)cc3c(=O)c(C(=O)O)cn1c23 [LEVOFLOXACIN] | < 0.03 µM | 64 µM (≈ 23.1 µg/mL) | < 0.03 µM | 8 µM (≈ 2.89 µg/mL) | 0.25 µM (≈ 0.0903 µg/mL) | – | 64 µM (≈ 23.1 µg/mL) | 0.25 µM (≈ 0.0903 µg/mL) | 1 µM (≈ 0.361 µg/mL) | – |
| Cc1ccc(N(C(=O)c2sc(C)nc2C)C(C(=O)NC2CCCCC2)c2cccc(C(F)(F)F)c2)cc1 (stereo not given) | – | – | – | – | – | 6.25 µM (≈ 3.31 µg/mL) | – | – | – | IC50 (HepG2): 8.14 µM; IC50 (MCF7): 5.7 µM; IC50 (HeLa): 16.4 µM; IC50 (DU-145): 11.8 µM; IC50 (CHO-K1): 42.7 µM; selectivity ratio [4]: 6.8; IC50 (A549): 13.9 µM; IC50 [5]: 59.8 µM; IC50 [6]: 11.6 µM |
| Cc1cccc(N(C(=O)c2c(C)noc2C)C(C(=O)NC2CCCCC2)c2ccncc2)c1C (stereo not given) | > 50 µM | > 50 µM | > 50 µM | > 50 µM | > 50 µM | 25 µM (≈ 11.5 µg/mL) | > 50 µM | > 50 µM | > 50 µM | – |
| Cc1ccc(C)c(N(C(=O)c2sc(C)nc2C)C(C(=O)NC2CCCCC2)c2ccccc2)c1 (stereo not given) | – | – | – | – | – | > 100 µM | – | – | – | – |
| Cc1ccc(N(C(=O)c2sc(C)nc2C)C(C(=O)NC2CCCCC2)c2ccccc2Cl)cc1 (stereo not given) | – | – | – | – | – | > 100 µM | – | – | – | – |
| Cc1ccc(N(C(=O)c2ccncc2)C(C(=O)NC2CCCCC2)c2ccncc2)cc1 (stereo not given) | – | – | – | – | – | 25 µM (≈ 10.7 µg/mL) | – | – | – | – |
| Cc1cc(C)cc(N(C(=O)c2sc(C)nc2C)C(C(=O)NC2CCCCC2)c2ccccc2)c1 (stereo not given) | – | – | – | – | – | > 100 µM | – | – | – | – |
| Cc1cccc(N(C(=O)c2ccco2)C(C(=O)NC2CCCCC2)c2ccccc2)c1C (stereo not given) | – | – | – | – | – | > 100 µM | – | – | – | – |
| Cc1ccc(N(C(=O)c2ccncc2)C(C(=O)NC2CCCCC2)c2cccnc2)cc1 (stereo not given) | > 50 µM | > 50 µM | > 50 µM | > 50 µM | > 50 µM | 25 µM (≈ 10.7 µg/mL) | > 50 µM | > 50 µM | > 50 µM | – |
| Cc1nc(C)c(C(=O)N(c2ccccc2)C(C(=O)NC2CCCCC2)c2ccccc2)s1 (stereo not given) | – | – | – | – | – | > 100 µM | – | – | – | – |
| Cc1cccc(N(C(=O)c2cnc3ccccc3c2)C(C(=O)NC2CCCCC2)c2ccccc2)c1C (stereo not given) | – | – | – | – | – | > 100 µM | – | – | – | – |
| Cc1nc(C)c(C(=O)N(c2ccccc2)C(C(=O)NC2CCCCC2)c2cccc(Cl)c2)s1 (stereo not given) | – | – | – | – | – | > 100 µM | – | – | – | – |

| Structure (SMILES) | MIC (Escherichia coli) | MIC [1] | MIC [2] | MIC (Acinetobacter baumannii) | MIC (Staphylococcus aureus) | MIC [3] | MIC (Klebsiella pneumoniae) | MIC (Mycobacteroides chelonae) | MIC (Pseudomonas aeruginosa) | other results |
| --- | --- | --- | --- | --- | --- | --- | --- | --- | --- | --- |
| Cc1cccc(N(C(=O)c2ccnc(Cl)c2)C(C(=O)NC2CCCCC2)c2ccccc2)c1C (stereo not given) | – | – | – | – | – | > 100 µM | – | – | – | – |
| Cc1ccc(N(C(=O)c2sc(C)nc2C)C(C(=O)NC(C)(C)C)c2ccccc2)cc1 (stereo not given) | – | – | – | – | – | > 100 µM | – | – | – | – |
| Cc1nc(C)c(C(=O)N(c2ccccc2)C(C(=O)NC2CCCCC2)c2ccc(C(F)(F)F)cc2)s1 (stereo not given) | – | – | – | – | – | > 100 µM | – | – | – | – |
| Cc1cccc(N(C(=O)c2ccc(Br)o2)C(C(=O)NC2CCCCC2)c2ccccc2)c1C (stereo not given) | – | – | – | – | – | > 100 µM | – | – | – | – |
| COc1cccc2c1C(=O)c1c(O)c3c(c(O)c1C2=O)C[C@@](O)(C(=O)CO)C[C@@H]3O[C@H]1C[C@H](N)[C@H](O)[C@H](C)O1 [DOXORUBICIN] | – | – | – | – | – | – | – | – | – | IC50 (HepG2): 0.72 µM; IC50 (MCF7): 2 µM; IC50 (HeLa): 0.8 µM; IC50 (DU-145): 0.363 µM; IC50 (A549): 0.55 µM; IC50 [5]: 0.01 µM; IC50 [6]: 0.7 µM |
| Cc1nc(C)c(C(=O)N(c2cccc(C)c2C)C(C(=O)NC(C)(C)C)c2ccccc2)s1 (stereo not given) | – | – | – | – | – | > 100 µM | – | – | – | – |
| Cc1nc(C)c(C(=O)N(c2ccccc2)C(C(=O)NC2CCCCC2)c2cccc(C(F)(F)F)c2)s1 (stereo not given) | – | – | – | – | – | > 100 µM | – | – | – | – |
| COc1ccc(C(C(=O)NC2CCCCC2)N(C(=O)c2sc(C)nc2C)c2ccc(C)cc2)cc1 (stereo not given) | – | – | – | – | – | > 100 µM | – | – | – | – |
| Cc1ccc(N(C(=O)c2ccc[nH]2)C(C(=O)NC2CCCCC2)c2ccccc2)cc1 (stereo not given) | – | – | – | – | – | 25 µM (≈ 10.4 µg/mL) | – | – | – | – |
| Cc1nc(C)c(C(=O)N(c2c(C)cccc2C)C(C(=O)NC2CCCCC2)c2ccccc2)s1 (stereo not given) | > 50 µM | > 50 µM | > 50 µM | > 50 µM | > 50 µM | 25 µM (≈ 11.9 µg/mL) | > 50 µM | > 50 µM | > 50 µM | – |
| Cc1ccc(N(C(=O)c2sc(C)nc2C)C(C(=O)Nc2cccc3ccccc23)c2ccccc2)cc1 (stereo not given) | – | – | – | – | – | > 100 µM | – | – | – | – |
| Cc1ccc(N(C(=O)c2sc(C)nc2C)C(C(=O)NC(C)(C)C)c2ccccc2)c(C)c1 (stereo not given) | – | – | – | – | – | > 100 µM | – | – | – | – |
| Cc1nc(C)c(C(=O)N(c2ccc(C)c(C)c2)C(C(=O)NC2CCCCC2)c2ccccc2)s1 (stereo not given) | – | – | – | – | – | > 100 µM | – | – | – | – |
| Cc1cccc(C)c1N(C(=O)c1ccc[nH]1)C(C(=O)NC1CCCCC1)c1ccccc1 (stereo not given) | > 50 µM | > 50 µM | > 50 µM | > 50 µM | > 50 µM | 25 µM (≈ 10.7 µg/mL) | > 50 µM | > 50 µM | > 50 µM | – |
| COc1ccc(C(C(=O)NC2CCCCC2)N(C(=O)c2sc(C)nc2C)c2ccccc2)cc1 (stereo not given) | – | – | – | – | – | > 100 µM | – | – | – | – |
| Cc1cccc(N(C(=O)c2ccncc2)C(C(=O)NC2CCCCC2)c2ccncc2)c1C (stereo not given) | > 50 µM | > 50 µM | > 50 µM | > 50 µM | > 50 µM | 25 µM (≈ 11.1 µg/mL) | > 50 µM | > 50 µM | > 50 µM | – |
| CCc1ccccc1N(C(=O)c1sc(C)nc1C)C(C(=O)NC1CCCCC1)c1ccccc1 (stereo not given) | > 50 µM | > 50 µM | > 50 µM | > 50 µM | > 50 µM | 25 µM (≈ 11.9 µg/mL) | > 50 µM | > 50 µM | > 50 µM | – |
